This is an account of results in US9926304B2, “1-(arylmethyl)quinazoline-2,4(1H,3H)-diones as PARP inhibitors and the use thereof” (Impact Therapeutics, Inc., priority 2011, dated 2018).

Each structure is given as a SMILES string. Where only a bound is given, the exact number is not on record here.

As a reminder, the EC50 is the concentration at which the effect is half-maximal.

Experiment [1] has as its system BRCA-2 deficient CAPAN-1 human pancreatic cancer cells. The experiment in a line: MTT based cell viability assay: growth inhibition of BRCA-2 deficient CAPAN-1 cells. To be noted: 240 h, compound alone, 10 day assay.
In the next experiment the target is T1, PARP-1 enzyme (Homo sapiens, UniProt P09874).
T1 construct: purchased Trevigen, Inc. 4676-096-K
The experiment can be described thus: PARP-1 enzymatic activity assay (Trevigen 96-well kit 4676-096-K). The format is biochemical. The conditions noted are these: 0.5 unit PARP-1, histone pre-coated plate, 60 min at room temperature; read-out: IC50 (nM), inhibitory effect on PARP-1 enzymatic activity. From the text: Measurement of the inhibitory effect of 1-(3-(4-(pyrimidin-2-yl)piperazine-1-carbonyl)benzyl)quinazoline-2,4(1H,3H)-dione and analogs on PARP-1 enzymatic activity
Briefly, PARP-1 catalyzes the NAD-dependent addition of poly(ADP-ribose) to its nuclear protein substrates such as histones. The assay kit measures the incorporation of biotynylated poly(ADP-ribose) onto histone proteins in a 96-well format.

Experiment [2] relates to SW620 human colorectal cancer cells. The experiment in a line: MTT based cell viability assay: potentiation of the growth inhibiting activity of MMS. To be noted: Homo sapiens, SW-620, 120 h, read-out: IC50 (nM), potentiation of the growth inhibiting activity of MMS, SW620 cells, 1.7 μg/ml MMS, 5 days (120 hours), MTT.
Description: Briefly, SW620 human colorectal cancer cells were used to measure the cell growth inhibiting activity of DNA alkylating anticancer drug MMS. […] SW620 cells were grown and maintained in RPMI1640 (Gibco) medium supplemented with 10% FBS (Hyclone). In the first day of experiment, 4000 cells were seeded to each well of a 96-well cell culture plate and incubated at 37° C. and 5% CO2 in a cell culture incubator overnight. In the next day, the cell culture medium was removed. […] The serial dilutions of the reference compounds and the compounds to be tested were made with a 1:3 and 1:10 fashion in DMSO. The 10-fold concentrated solutions of these compounds were made by mixing 10 μl of the serial dilutions in DMSO with 90 μl fresh medium. The final concentration of DMSO in the medium was 1%. The cells were incubated at 37° C. in 5% CO2 cell culture incubator for additional 5 days (120 hours). Afterwards, the 96-well cell culture plate was taken out and 20 μl of MTT solution was added to each well and incubated at 37° C. for 4 h. The medium was removed and 100 μl DMSO was added to each well. The 96-well cell culture plates were shaked adequately for 10 min and read in a Varioskan Flash plate reader (Thermo Fisher Scientific) at 520 and 690 nm. The data were analyzed by Prism 5 software (GraphPad). The obtained 520 nm absorbance readings subtracting corresponding 690 nm reading were analyzed and plotted against the Log scale of the compound concentrations.
Experiment [3] has as its system Human breast cancer cell line T47D. The experiment in a line: Cell based caspase-3 activity assay: potentiation of MMS induced apoptosis. The conditions noted are these: Homo sapiens, T47D, 24 h, T47D cells, 11.1 μg/ml MMS, 24 hours, intracellular caspase-3 activity; read-out: EC50 (nM), potentiation of the apoptosis inducing activity of MMS. A digest of the protocol: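 T47D cells were exposed for 24 h to compound plus a minimally apoptotic MMS dose (medium containing 11.1 μg/ml MMS). Lysates were incubated 3 h at 37 °C with (Ac-DEVD)2-R110 caspase-3 substrate (20 μM in added buffer) and read at ex 496/em 520 nm. EC50 came from a sigmoidal fit of RFU versus log concentration.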

T1 sequence (P09874 whole entry): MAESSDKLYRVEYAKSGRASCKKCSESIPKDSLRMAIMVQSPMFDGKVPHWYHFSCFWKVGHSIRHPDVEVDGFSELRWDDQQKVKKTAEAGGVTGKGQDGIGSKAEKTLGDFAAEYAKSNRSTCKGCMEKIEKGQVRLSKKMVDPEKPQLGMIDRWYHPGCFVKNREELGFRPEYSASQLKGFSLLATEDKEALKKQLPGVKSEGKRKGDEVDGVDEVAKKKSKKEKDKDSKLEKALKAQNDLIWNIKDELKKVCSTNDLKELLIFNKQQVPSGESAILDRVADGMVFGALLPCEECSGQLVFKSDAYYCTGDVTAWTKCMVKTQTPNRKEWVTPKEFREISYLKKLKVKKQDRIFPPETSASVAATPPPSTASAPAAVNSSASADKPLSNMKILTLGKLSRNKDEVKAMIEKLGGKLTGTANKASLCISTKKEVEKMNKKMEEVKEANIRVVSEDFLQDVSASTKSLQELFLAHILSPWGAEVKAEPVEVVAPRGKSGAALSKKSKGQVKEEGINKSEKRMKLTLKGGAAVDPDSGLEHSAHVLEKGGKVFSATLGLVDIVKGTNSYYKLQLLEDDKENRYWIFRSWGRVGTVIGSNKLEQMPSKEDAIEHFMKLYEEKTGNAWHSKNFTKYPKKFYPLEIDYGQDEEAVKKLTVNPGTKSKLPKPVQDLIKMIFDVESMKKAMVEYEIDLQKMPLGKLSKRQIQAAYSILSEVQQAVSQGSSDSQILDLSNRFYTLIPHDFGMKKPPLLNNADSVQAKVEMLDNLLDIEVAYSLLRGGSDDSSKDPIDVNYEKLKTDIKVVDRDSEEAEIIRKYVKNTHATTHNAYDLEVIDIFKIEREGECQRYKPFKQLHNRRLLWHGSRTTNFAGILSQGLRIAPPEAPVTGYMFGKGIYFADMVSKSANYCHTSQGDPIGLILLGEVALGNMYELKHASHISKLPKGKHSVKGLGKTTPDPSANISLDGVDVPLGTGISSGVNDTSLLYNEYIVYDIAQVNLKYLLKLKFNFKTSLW

Consider `O=C(c1cccc(Cn2c(=O)[nH]c(=O)c3ccccc32)c1)N1CCN(c2ccccn2)CC1` [Example 3, 1-(3-(4-(Pyridin-2-yl)piperazine-1-carbonyl)benzyl)quinazoline-2,4(1H,3H)-dione], for which the IC50 in experiment [1] turned out to be 445 nM; on PARP-1 enzyme, 4.2 nM; in experiment [2] it was 90 nM. For the same compound, the EC50 in experiment [3] was 56 nM.
Consider `O=C(c1cccc(Cn2c(=O)[nH]c(=O)c3ccccc32)c1)N1CCN(C(=O)C2CCCC2)CC1` [Example 14, 1-(3-(4-(Cyclopentylcarbonyl)piperazine-1-carbonyl)benzyl)quinazoline-2,4(1H,3H)-dione], for which the values for the IC50 (at PARP-1 enzyme; in experiment [2]) were 2.3 nM and 102 nM, respectively. Besides, the EC50 in experiment [3] was 39 nM.
The matching figures for `O=C(c1cc(Cn2c(=O)[nH]c(=O)c3c(F)cccc32)ccc1F)N1CCN(c2ccccn2)CC1` [Example 135, 5-Fluoro-1-(4-fluoro-3-(4-(pyridin-2-yl)piperazine-1-carbonyl)benzyl)quinazoline-2,4(1H,3H)-dione]: 1.74 nM, 6.8 nM and 9.8 nM.
For the compound `O=C(c1ccco1)N1CCN(C(=O)c2cc(Cn3c(=O)[nH]c(=O)c4cc(F)ccc43)ccc2F)CC1` [Example 185, 6-Fluoro-1-(4-fluoro-3-(4-(furan-2-carbonyl)piperazine-1-carbonyl)benzyl)quinazoline-2,4(1H,3H)-dione], the IC50 in experiment [1] came out at 358 nM; in experiment [2], 6.7 nM. The 50% effective concentration (EC50) in experiment [3] was determined as 2.1 nM.
The matching figures for `O=C(c1cc(F)cc(Cn2c(=O)[nH]c(=O)c3cc(F)ccc32)c1)N1CCN(c2ncccn2)CC1` [Example 186, 6-Fluoro-1-(5-fluoro-3-(4-(pyrimidin-2-yl)piperazine-1-carbonyl)benzyl)quinazoline-2,4(1H,3H)-dione]: 167 nM, 24 nM and 6.8 nM.
Consider `O=C(c1cc(Cn2c(=O)[nH]c(=O)c3c(F)cccc32)ccc1F)N1CCN(c2nccs2)CC1` [Example 189, 5-Fluoro-1-(4-fluoro-3-(4-(thiazol-2-yl)piperazine-1-carbonyl)benzyl)quinazoline-2,4(1H,3H)-dione], for which the IC50 in experiment [1] was 736 nM; on PARP-1 enzyme, 2.2 nM; in experiment [2], 10 nM.
For the compound `O=C(c1cccc(Cn2c(=O)[nH]c(=O)c3cc(F)ccc32)n1)N1CCN(c2ncccn2)CC1` [Example 199, 6-Fluoro-1-((2-(4-(pyrimidin-2-yl)piperazine-1-carbonyl)pyridin-6-yl)methyl)quinazoline-2,4(1H,3H)-dione], the IC50 is 948 nM in experiment [1] and 19 nM in experiment [2]. For the same compound, the 50% effective concentration (EC50) in experiment [3] came out at 4.9 nM.
For the compound `O=C(c1cc(Cn2c(=O)[nH]c(=O)c3c(F)cccc32)ccc1F)N1CCN(C(=O)C2CCCO2)CC1` (stereo not shown) [Example 210, 5-Fluoro-1-(4-fluoro-3-(4-(tetrahydrofuran-2-carbonyl)piperazine-1-carbonyl)benzyl)quinazoline-2,4(1H,3H)-dione], the IC50 in experiment [1] was 3440 nM; in experiment [2], 10 nM. The EC50 in experiment [3] amounted to 15 nM.
The matching figures for `O=C(c1cc(Cn2c(=O)[nH]c(=O)c3c(F)cccc32)ccc1F)N1CCN(C2CCCCC2)CC1` [Example 212, 1-(3-(4-Cyclohexylpiperazine-1-carbonyl)-4-fluorobenzyl)-5-fluoroquinazoline-2,4(1H,3H)-dione]: > 10000 nM, 19 nM and 45 nM.
The matching figures for `O=C(c1cc(Cn2c(=O)[nH]c(=O)c3c(F)cccc32)ccc1F)N1CCN(CC2CCCCC2)CC1` [Example 217, 1-(3-(4-(Cyclohexylmethyl)piperazine-1-carbonyl)-4-fluorobenzyl)-5-fluoroquinazoline-2,4(1H,3H)-dione]: 460 nM, 2.5 nM and 19 nM.
